{
  "source": "paper PMC10060162",
  "about": "“Structural basis of mitochondrial membrane bending by the I–II–III2–IV2 supercomplex” (Nature, 2023)",
  "key": {"[1]": {"biological_target": "T1, NDUTT3 (Tetrahymena thermophila, UniProt I7LUQ4)", "T1 construct": "gene TTHERM_00268000; native matrix-arm subunit of complex I within supercomplex, digitonin", "T1 sequence (I7LUQ4 1-311)": "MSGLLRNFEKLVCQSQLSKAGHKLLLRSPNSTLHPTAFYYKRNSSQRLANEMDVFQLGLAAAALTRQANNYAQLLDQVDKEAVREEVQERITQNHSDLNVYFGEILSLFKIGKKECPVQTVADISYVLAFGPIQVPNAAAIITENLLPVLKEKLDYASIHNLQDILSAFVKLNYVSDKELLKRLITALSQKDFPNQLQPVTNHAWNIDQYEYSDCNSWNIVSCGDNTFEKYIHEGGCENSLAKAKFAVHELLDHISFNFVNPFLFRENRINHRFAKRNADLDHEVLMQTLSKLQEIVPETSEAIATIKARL", "test": "cryo-EM structure", "assay_type": "binding", "conditions": "co-purified native ligand"}, "[2]": {"biological_target": "complex IV monomer (cytochrome c oxidase) of Tetrahymena thermophila (Tetrahymena thermophila) (UniProt Q950Y7)", "test": "cryo-EM structure; single-particle cryo-EM of the native supercomplex co-purified from T. thermophila mitochondria; buffer D (25 mM HEPES-KOH pH 7.5, 25 mM KCl, 5 mM MgCl2, 0.1% w/v digitonin); 2.9 Å overall, masked refinements 2.6-3.0 Å"}, "[3]": {"biological_target": "complex III monomer (cytochrome bc1) of Tetrahymena thermophila (Tetrahymena thermophila)", "test": "cryo-EM structure; single-particle cryo-EM of the native supercomplex co-purified from T. thermophila mitochondria; buffer D (25 mM HEPES-KOH pH 7.5, 25 mM KCl, 5 mM MgCl2, 0.1% w/v digitonin); 2.9 Å overall, masked refinements 2.6-3.0 Å"}, "[4]": {"biological_target": "T2, COB (CIII2) (Tetrahymena thermophila, UniProt Q950Z1)", "T2 construct": "native; mitochondria-encoded subunit in complex III dimer within supercomplex, digitonin", "T2 sequence (Q950Z1 1-426)": "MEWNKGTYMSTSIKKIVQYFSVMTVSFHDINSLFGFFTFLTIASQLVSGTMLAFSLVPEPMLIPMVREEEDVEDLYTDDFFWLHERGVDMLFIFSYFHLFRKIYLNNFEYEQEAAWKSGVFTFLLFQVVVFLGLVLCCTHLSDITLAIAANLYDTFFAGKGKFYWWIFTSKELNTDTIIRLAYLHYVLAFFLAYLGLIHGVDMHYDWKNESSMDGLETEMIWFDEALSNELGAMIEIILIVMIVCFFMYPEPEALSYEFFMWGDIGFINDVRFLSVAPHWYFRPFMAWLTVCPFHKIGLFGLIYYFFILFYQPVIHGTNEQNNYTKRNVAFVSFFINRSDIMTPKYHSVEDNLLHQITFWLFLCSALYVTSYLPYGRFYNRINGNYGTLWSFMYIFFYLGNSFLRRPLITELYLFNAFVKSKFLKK", "test": "cryo-EM structure", "assay_type": "binding", "conditions": "co-purified; Qi site near haem bH (or semiquinone); second site between the two haem bL"}, "[5]": {"biological_target": "T3, SDHA (CII) (Tetrahymena thermophila, UniProt Q23DI3)", "T3 construct": "gene TTHERM_00047080; native complex II in I-II-III2-IV2 supercomplex from mitochondria, digitonin; with Succinate dehydrogenase [ubiquinone] iron-sulfur subunit, mitochondrial; Succinate dehydrogenase membrane anchor subunit SDHC; Succinate dehydrogenase membrane anchor subunit SDHD (mitochondria-encoded)", "T3 sequence (Q23DI3 1-636)": "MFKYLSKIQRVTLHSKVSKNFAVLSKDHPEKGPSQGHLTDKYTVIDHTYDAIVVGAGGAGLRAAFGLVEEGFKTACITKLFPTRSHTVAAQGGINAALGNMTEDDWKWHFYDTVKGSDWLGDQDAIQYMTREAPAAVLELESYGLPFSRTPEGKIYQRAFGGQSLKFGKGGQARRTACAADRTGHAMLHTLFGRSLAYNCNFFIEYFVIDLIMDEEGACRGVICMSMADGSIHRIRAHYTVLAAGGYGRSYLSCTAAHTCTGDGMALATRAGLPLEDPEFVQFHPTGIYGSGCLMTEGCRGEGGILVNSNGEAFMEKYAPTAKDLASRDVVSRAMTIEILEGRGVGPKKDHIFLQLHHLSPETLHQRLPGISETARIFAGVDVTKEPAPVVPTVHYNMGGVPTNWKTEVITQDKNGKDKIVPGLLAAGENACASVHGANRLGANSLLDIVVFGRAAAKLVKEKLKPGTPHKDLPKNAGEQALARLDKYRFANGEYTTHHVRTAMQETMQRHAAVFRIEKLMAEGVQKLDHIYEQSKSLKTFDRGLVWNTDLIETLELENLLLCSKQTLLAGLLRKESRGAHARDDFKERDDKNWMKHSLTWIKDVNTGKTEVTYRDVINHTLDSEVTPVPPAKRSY", "test": "cryo-EM structure", "assay_type": "binding", "conditions": "covalent"}, "[6]": {"biological_target": "T4, NDUFA9 (Tetrahymena thermophila, UniProt I7MLH2)", "T4 construct": "gene TTHERM_00557760; native subunit of complex I within supercomplex, digitonin", "T4 sequence (I7MLH2 27-362)": "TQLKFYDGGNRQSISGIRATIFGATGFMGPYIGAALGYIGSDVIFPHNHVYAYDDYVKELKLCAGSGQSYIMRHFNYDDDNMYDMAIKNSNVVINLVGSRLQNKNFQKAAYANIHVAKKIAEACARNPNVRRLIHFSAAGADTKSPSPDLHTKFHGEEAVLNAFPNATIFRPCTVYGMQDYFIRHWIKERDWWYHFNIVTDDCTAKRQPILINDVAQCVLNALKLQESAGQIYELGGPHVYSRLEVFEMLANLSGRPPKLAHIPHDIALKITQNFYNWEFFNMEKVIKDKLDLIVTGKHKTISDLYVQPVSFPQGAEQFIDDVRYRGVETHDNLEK", "test": "cryo-EM structure", "assay_type": "binding", "conditions": "co-purified; close to the CI Q-tunnel"}},
  "data": [
    {"compound": "Nc1ncnc2c1ncn2[C@@H]1O[C@H](COP(=O)(O)OP(=O)(O)O)[C@@H](O)[C@H]1O", "note": "[ADP]", "values": [
      {"measurement": "cryo-EM structure", "setting": "[1]", "value": "subunits NDUTT1 with UDP and NDUTT3 with ADP"}
    ]},
    {"compound": "complex IV monomer (cytochrome c oxidase) of Tetrahymena thermophila (from UniProt Q950Y7 1-453; Q950Y6 1-594)", "values": [
      {"measurement": "stoichiometry N", "setting": "[2]", "value": 2}
    ]},
    {"compound": "complex III monomer (cytochrome bc1) of Tetrahymena thermophila", "values": [
      {"measurement": "stoichiometry N", "setting": "[3]", "value": 2}
    ]},
    {"compound": "COC1=C(OC)C(=O)C(C/C=C(\\C)CC/C=C(\\C)CC/C=C(\\C)CC/C=C(\\C)CC/C=C(\\C)CC/C=C(\\C)CC/C=C(\\C)CCC=C(C)C)=C(C)C1=O", "note": "[UQ, ubiquinone]", "values": [
      {"measurement": "cryo-EM structure", "setting": "[4]", "value": "density for a bound (semi)-UQ was observed in the Qi site"}
    ]},
    {"compound": "Cc1cc2nc3c(=O)[nH]c(=O)nc-3n(C[C@H](O)[C@H](O)[C@H](O)COP(=O)(O)OP(=O)(O)OC[C@H]3O[C@@H](n4cnc5c(N)ncnc54)[C@H](O)[C@@H]3O)c2cc1C", "note": "[flavin adenine dinucleotide]", "values": [
      {"measurement": "cryo-EM structure", "setting": "[5]", "value": "SDHA and SDHB forms a conserved head region, containing both the covalently bound FAD"}
    ]},
    {"compound": "NC(=O)C1=CN([C@@H]2O[C@H](COP(=O)(O)OP(=O)(O)OC[C@H]3O[C@@H](n4cnc5c(N)ncnc54)[C@H](OP(=O)(O)O)[C@@H]3O)[C@@H](O)[C@H]2O)C=CC1", "note": "[NADPH]", "values": [
      {"measurement": "cryo-EM structure", "setting": "[6]", "value": "NDUFA9 contains a bound NADPH molecule close to the CI Q-tunnel"}
    ]}
  ]
}
